Structures can show the parent of a compound that is named as a salt. Where two headings read alike, the source gives them in different places.
Key:
[1] = tested on: MiaPaCa-2 human pancreatic tumor xenografts; experiment: Tumor xenograft experiment, established s.c. MiaPaCa-2 tumors, anti-tumor efficacy (Example 2); format: in vivo; settings: Gemzar 120 mg/kg/dose i.p. q4d×3
Description: (§1) Mice received food and water ad libitum.
(§2) These schedules are termed ‘Concurrent Therapy’.

[2] = Tolerability (body weight, mortality) in MiaPaCa-2 tumor-bearing mice (Example 2); format: in vivo; settings: Gemzar 120 mg/kg/dose i.p. q4d×3; Compound A p.o. qd×9 (40 mg/kg/dose, 80 mg/kg dose level); alone or concurrent
Description: as §1, §2

[3] = tested on: DLD-1 human colon tumor xenografts; experiment: Tumor xenograft experiment, established s.c. DLD-1 tumors, anti-tumor efficacy (Example 1); format: in vivo; settings: Camptosar 40 mg/kg/dose i.p. q4d×3, Compound A 80 mg/kg/dose p.o. qd×9
Description: as §1, §2

[4] = Camptosar 40 mg/kg/dose i.p. q4d×3, Compound A 80 mg/kg/dose p.o. qd×9
Description: (§3) Ncr nu/nu female mice (Taconic Farms, Germantown, N.Y.) were used for all in vivo studies invovling the DLD-1 and NCI-H460 tumor models. Female CB-17 SCID nice (Taconic Farms, Germantown, N.Y.) were used for studies involving the Mia-PaCa-2 tumor model. The mice were housed and maintained within the Comparative Medicine Department at Bayer Corporation, West Haven, Conn. in accordance with Bayer IACUC, State, and Federal guidelines for the humane treatment and care of laboratory animals. Mice received food and water ad libitum.
as §2
In the first study, Camptosar® was administered i.p at 40 mg/kg/dose.

[5] = tested on: A549 human non-small cell lung tumor xenografts; experiment: Tumor xenograft experiment, established A549 tumors, anti-tumor efficacy (Example 5); format: in vivo; settings: Iressa 150 mg/kg/dose p.o. qd×9, Compound A 80 mg/kg/dose p.o. qd×9; for percent tumor growth suppression (% TGS): alone or combined, endpoint time to one mass doubling
Protocol: (§4) The NCI-H460 cells were maintained and passaged in vitro using DMEM (GIBCO cat. # 11995-065: 500 mls) supplemented with 10% heat inactivated fetal bovine serum (JRH Biosciences cat.# 12106-500M), 2 mM L-glutamine (GIBCO cat. # 25030-81), 10 mM HEPES buffer (GIBCO cat # 15630-080) and penicillin-streptomycin (GIBCO cat. # 15140-122: 5 mls/[…]). The A549 cells were maintained and passaged using RPMI 1640 media (GIBCO cat.# 11875-085: 1000 ml) supplemented with 10% heat-inactivated fetal bovine serum (JRH Biosciences cat.# 12106-500M). All cells were maintained at 37° C. and 5% CO2 in a Fisher Scientific 610 CO2 incubator.
as §2

[6] = Iressa 150 mg/kg/dose p.o. qd×9; Compound A 80 mg/kg/dose p.o. qd×9; alone or combined; 10 mice per group
Description: as §2

[7] = tested on: MX-1 mammary tumor xenografts; experiment: Tumor xenograft experiment, established MX-1 tumors, anti-tumor efficacy (Example 4); settings: DOX 4 mg/kg/dose i.v. q4d×3; Compound A 40 mg/kg/dose p.o. qd×9; alone or combined; endpoint time to four mass doublings
Description: The DLD-1 human colon carcinoma and the MiaPaCa-2 human pancreatic carcinoma were obtained from the American Type Tissue Culture Collection Repository. The MX-1 human mammary tumor was obtained from the NCI tumor repository. Tumors were maintained as a serial in vivo passage of s.c. fragments (3×3 mm) implanted in the flank using a 12 gauge trocar. A new generation of the passage was initiated every three or four weeks.
Female mice were implanted s.c. with DLD-1, MX-1 or Mia-PaCa-2 tumor fragments from an in vivo passage. […] The general health of mice was monitored and mortality was recorded daily. Tumor dimensions and body weights were recorded twice a week starting with the first day of treatment. […]
Tumor weights were calculated using the equation (l×w^2)/2, where l and w refer to the larger and smaller dimensions collected at each measurement. […] Anti-tumor efficacy was measured as the incidence of complete regressions (CR) defined as tumors that are reduced to below the limit of measurement (3 mm) in both length and width, partial regressions (PR) defined as tumors that are reduced by more than 50% but less than 100% of their initial size, and percent tumor growth suppression (% TGS). […]

[8] = tested on: NCI-H460 human non-small cell lung tumor xenografts; experiment: Tumor xenograft experiment, established s.c. NCI-H460 tumors, anti-tumor efficacy (Example 3); format: in vivo; settings: Ncr nu/nu mice; Navelbine 6.7 mg/kg/dose i.v. q4d×3; Compound A 40 mg/kg/dose p.o. qd×9; alone or combined; endpoint time to three mass doublings
Description: as §3, §4, §2

in vivo = settings: female, Ncr nu/nu, mouse, iv, 6.7 mg/kg/dose
Description: as §3, §2

Row | Compound | lethality [2] | lethality ([4]; alone or concurrent) | incidence of partial regressions (PR) ([5]; 10 mice per group) | percent tumor growth suppression (% TGS) [5] | lethality [6] | percent tumor growth suppression (% TGS) [7] | other results
1 | Nc1ccn([C@@H]2O[C@H](CO)[C@@H](O)C2(F)F)c(=O)n1 [Gemzar, Gemcitabine HCI] | no lethality |  |  |  |  |  | percent tumor growth suppression (% TGS) ([1]; CB-17 SCID mice, Compound A 40 mg/kg/dose p.o. qd×9, alone or concurrent, endpoint time to two mass doublings): 154%; incidence of complete regressions (CR) ([1]; 10 mice per group): no complete or partial tumor regressions; incidence of partial regressions (PR) ([1]; Compound A 40 mg/kg/dose p.o. qd×9, 10 mice per group): no complete or partial tumor regressions
2 | CCc1c2c(nc3ccc(OC(=O)N4CCC(N5CCCCC5)CC4)cc13)-c1cc3c(c(=O)n1C2)COC(=O)[C@]3(O)CC [Camptosar, Irinotecan] |  | no lethality |  |  |  |  | incidence of complete regressions (CR) ([3]; 10 mice per group): no complete or partial tumor regressions; incidence of partial regressions (PR) ([3]; 10 mice per group): no complete or partial tumor regressions; percent tumor growth suppression (% TGS) ([3]; Ncr nu/nu mice, alone or concurrent, endpoint time to three mass doublings): 71%; weight loss ([4]; alone or concurrent): minimal weight loss; tolerability ([4]; single agents): well tolerated
3 | CNC(=O)c1cc(Oc2ccc(NC(=O)Nc3ccc(Cl)c(C(F)(F)F)c3)cc2)ccn1 [Compound A, N-(4-chloro-3-(trifluoromethyl)phenyl)-N′-(4-(2-(N-methylcarbamoyl)-4-pyridyloxy)phenyl)urea] | no lethality | no lethality | 2 | 218% | no weight loss or lethality | 46% | incidence of complete regressions (CR) ([5]; 10 mice per group): 1
4 | COc1cccc2c1C(=O)c1c(O)c3c(c(O)c1C2=O)C[C@@](O)(C(=O)CO)C[C@@H]3O[C@H]1C[C@H](N)[C@H](O)[C@H](C)O1 [DOX, Doxorubicin HCl] |  |  |  |  |  | 43% | 
5 | CCC1=C[C@@H]2CN(C1)Cc1c([nH]c3ccccc13)[C@@](C(=O)OC)(c1cc3c(cc1OC)N(C)[C@H]1[C@@](O)(C(=O)OC)[C@H](OC(C)=O)[C@]4(CC)C=CCN5CC[C@]31[C@@H]54)C2 [Navelbine, 3′,4′-didehydro-4′deoxy-C-norvincaleukoblastine [R—(R,R)-2,3-dihydroxybutanedioate (1:2)(salt)]] |  |  |  |  |  |  | percent tumor growth suppression (% TGS) [8]: 32%; MTD at 9 days (in vivo): ~6.7 mg/kg
6 | COc1cc2ncnc(Nc3ccc(F)c(Cl)c3)c2cc1OCCCN1CCOCC1 [Iressa, 4-(3-chloro-4-fluoroanilino)7-methoxy-6-(3-morpholinopropoxy)quinazoline] |  |  | 1 | 101% | no lethality |  | 
